Test results published in DBAASP.
In brackets after ≈: the same amount, converted by molar mass. Several values for one entry are separate records, joined by “and”; a condition that tells them apart may be missing. Identical values can stand only once.

Key:
Test in all cases: ≥ marks a high value that may be exact or a test limit, other limits are often not marked, values filed in µg/mL are converted to µM
Candida albicans SC5314 = system: Candida albicans SC5314
[1] = system: Cryptococcus neoformans var. grubii H99
[2] = system: Escherichia coli ATCC 25922
Escherichia coli = system: Escherichia coli
Klebsiella pneumoniae = system: Klebsiella pneumoniae
[3] = system: Pseudomonas aeruginosa ATCC 27853
Pseudomonas aeruginosa = system: Pseudomonas aeruginosa
Pseudomonas syringae = system: Pseudomonas syringae
[4] = system: Staphylococcus aureus ATCC 29213
Staphylococcus aureus = system: Staphylococcus aureus
[5] = system: Streptococcus pneumoniae TIGR4
[6] = system: Streptococcus pyogenes AP1
[7] = system: Xanthomonas campestris pv. campestris
[8] = system: Xanthomonas oryzae pv. oryzae
Xanthomonas vesicatoria = system: Xanthomonas vesicatoria
[9] = system: Aeromonas hydrophila ATCC 35654
[10] = system: Micrococcus luteus ATCC 49732
[11] = system: Staphylococcus aureus ATCC 25923
[12] = system: Candida albicans ATCC 24433
[13] = system: Candida parapsilosis ATCC 22019
[14] = system: Trichophyton rubrum ATCC 28189
[15] = system: Acinetobacter baumannii ATCC BAA-1605
[16] = system: Enterococcus faecium ATCC 700221
[17] = system: Klebsiella pneumoniae ATCC 700603
[18] = system: Staphylococcus aureus ATCC 33591
[19] = system: Candida albicans NCPE 1467
[20] = system: Chromobacterium violaceum ATCC 12472
[21] = system: Enterococcus faecalis NCTC 12697
[22] = system: Escherichia coli NCTC 10418
[23] = system: Staphylococcus aureus ATCC 43300
[24] = system: Staphylococcus aureus NCTC 10788
[25] = system: Staphylococcus aureus NCTC 12493
Acinetobacter baumannii = system: Acinetobacter baumannii
Enterobacter cloacae = system: Enterobacter cloacae
Escherichia coli BL21 = system: Escherichia coli BL21
[26] = system: Escherichia coli KpC+001812446
[27] = system: Klebsiella pneumoniae ATCC 13883
[28] = system: Klebsiella pneumoniae KpC+001825971
[29] = system: Pseudomonas aeruginosa PA14
[30] = system: Pseudomonas aeruginosa PAO1
[31] = system: Staphylococcus aureus ATCC 12600
Staphylococcus aureus MR = system: Staphylococcus aureus MR

CC[C@H](C)[C@H](NC(=O)[C@H](CCC(=O)O)NC(=O)[C@H](Cc1ccc(O)cc1)NC(=O)[C@@H](N)CCCCN)C(=O)N[C@H](C(=O)N[C@H](C(=O)N[C@H](C(=O)N[C@@H](Cc1cnc[nH]1)C(=O)N[C@@H](CC(N)=O)C(=O)N[C@@H](CC(C)C)C(=O)N[C@@H](Cc1ccccc1)C(=O)N[C@@H](CCCN=C(N)N)C(=O)N[C@@H](CCCCN)C(=O)N[C@@H](CC(C)C)C(=O)N[C@H](C(=O)N[C@@H](Cc1cnc[nH]1)C(=O)N[C@@H](CCCN=C(N)N)C(=O)N[C@@H](CC(C)C)C(=O)N[C@@H](Cc1ccccc1)C(=O)N[C@@H](CCCN=C(N)N)C(=O)N[C@@H](CCCN=C(N)N)C(=O)N[C@@H](CC(N)=O)C(=O)N[C@@H](Cc1ccccc1)C(=O)NCC(=O)N[C@@H](Cc1ccc(O)cc1)C(=O)N[C@H](C(=O)N[C@@H](CC(C)C)C(=O)N[C@@H](CCCN=C(N)N)C(=O)O)[C@@H](C)O)[C@@H](C)O)[C@@H](C)CC)[C@@H](C)O)[C@@H](C)O [KYEITTIHNLFRKLTHRLFRRNFGYTLR]
MIC (Candida albicans SC5314): 25 µM and ≥ 50 µM | MIC [1]: 25 µM and ≥ 50 µM | MIC [2]: 10 µM (≈ 36 µg/mL) | MIC (Escherichia coli): 3.54 µM (≈ 12.7 µg/mL) | MIC (Klebsiella pneumoniae): 10 µM and 25 µM | MIC [3]: 10 µM (≈ 36 µg/mL) | MIC (Pseudomonas aeruginosa): 14.1 µM (≈ 50.8 µg/mL) | MIC (Pseudomonas syringae): 5 µM (≈ 18 µg/mL) | MIC [4]: 5 µM (≈ 18 µg/mL) | MIC (Staphylococcus aureus): 5 µM (≈ 18 µg/mL) | MIC [5]: 5 µM (≈ 18 µg/mL) | MIC [6]: 10 µM (≈ 36 µg/mL) | MIC [7]: 5 µM (≈ 18 µg/mL) | MIC [8]: 5 µM (≈ 18 µg/mL) | MIC (Xanthomonas vesicatoria): 1 µM (≈ 3.6 µg/mL)

CC(C)C[C@H](NC(=O)[C@H](Cc1cnc[nH]1)NC(=O)[C@H](C)NC(=O)[C@H](CCCCN)NC(=O)[C@H](CCCCN)NC(=O)[C@H](Cc1ccccc1)NC(=O)[C@H](CO)NC(=O)[C@H](CCCCN)NC(=O)[C@H](CC(=O)O)NC(=O)[C@H](Cc1cnc[nH]1)NC(=O)[C@H](Cc1c[nH]c2ccccc12)NC(=O)[C@H](CCCN=C(N)N)NC(=O)[C@H](CCC(N)=O)NC(=O)[C@H](CCC(N)=O)NC(=O)[C@H](CCCN=C(N)N)NC(=O)[C@@H](N)CCCN=C(N)N)C(=O)NCC(=O)N[C@H](C(=O)N[C@@H](C)C(=O)N[C@H](C(=O)N[C@@H](CCCCN)C(=O)N[C@@H](C)C(N)=O)C(C)C)[C@@H](C)O [RRQQRWHDKSFKKAHLGTAVKA]
MIC [9]: 20 µM (≈ 53 µg/mL) | MIC [2]: > 20 µM | MIC [10]: 20 µM (≈ 53 µg/mL) | MIC [11]: > 20 µM

CC[C@H](C)[C@H](NC(=O)[C@H](CCC(=O)O)NC(=O)[C@H](CO)NC(=O)[C@H](CCCN=C(N)N)NC(=O)[C@@H](N)CO)C(=O)N[C@H](C(=O)N[C@@H](CCC(N)=O)C(=O)N[C@@H](CCCN=C(N)N)C(=O)N[C@@H](CC(C)C)C(=O)N[C@@H](Cc1ccccc1)C(N)=O)C(C)C [SRSEIVQRLF]
MIC [12]: ≥ 324 µM | MIC [13]: ≥ 324 µM | MIC (Escherichia coli): > 324 µM | MIC (Staphylococcus aureus): > 324 µM | MIC [14]: ≥ 324 µM

CC[C@H](C)[C@H](NC(=O)[C@H](CCCCN)NC(=O)[C@H](CCCN=C(N)N)NC(=O)[C@H](Cc1ccccc1)NC(=O)[C@H](CC(C)C)NC(=O)[C@H](CCCN=C(N)N)NC(=O)[C@@H](N)CCCCN)C(=O)N[C@@H](CC(C)C)C(=O)N[C@@H](CCCN=C(N)N)C(=O)N[C@@H](Cc1ccc(O)cc1)C(=O)N[C@@H](CC(C)C)C(N)=O [KRLFRKILRYL]
MIC [15]: 11.6 µM (≈ 17.5 µg/mL) | MIC [16]: 23.2 µM (≈ 35 µg/mL) | MIC [2]: 46.8 µM (≈ 70.5 µg/mL) | MIC [17]: 23.2 µM (≈ 35 µg/mL) | MIC [3]: 46.8 µM (≈ 70.5 µg/mL) | MIC [18]: ≥ 46.8 µM

CC[C@H](C)[C@H](NC(=O)[C@H](C)NC(=O)[C@H](C)NC(=O)[C@@H]1CCCN1C(=O)[C@@H](NC(=O)[C@H](CC(C)C)NC(=O)[C@H](CCCCN)NC(=O)[C@H](CO)NC(=O)[C@H](C)NC(=O)[C@@H](NC(=O)[C@H](CCCCN)NC(=O)[C@H](Cc1ccccc1)NC(=O)[C@H](CC(C)C)NC(=O)[C@H](C)NC(=O)CNC(=O)[C@H](CC(C)C)NC(=O)[C@@H](N)Cc1ccccc1)C(C)C)C(C)C)C(=O)N[C@H]1CSSC[C@@H](C(=O)O)NC(=O)[C@H](CCCCN)NC(=O)[C@H](CCCCN)NC(=O)[C@H](CO)NC(=O)[C@H]([C@@H](C)CC)NC(=O)[C@H](CO)NC1=O [FLGALFKVASKLVPAAICSISKKC]
MIC [19]: 4 µM (≈ 9.97 µg/mL) | MIC [20]: ≥ 205 µM | MIC [21]: 12.8 µM (≈ 31.9 µg/mL) | MIC [22]: 8 µM (≈ 19.9 µg/mL) | MIC [3]: 32 µM (≈ 79.8 µg/mL) | MIC [23]: 51.3 µM (≈ 128 µg/mL) | MIC [24]: 2 µM (≈ 4.99 µg/mL) | MIC [25]: 4 µM (≈ 9.97 µg/mL)

CC[C@H](C)[C@H](NC(=O)[C@H](CCCCN)NC(=O)[C@H](C)NC(=O)[C@H](C)NC(=O)[C@H](CC(C)C)NC(=O)[C@H](CCCN=C(N)N)NC(=O)[C@H](CC(C)C)NC(=O)[C@H](C)NC(=O)[C@H](CC(C)C)NC(=O)[C@H](CCCCN)NC(=O)[C@H](CC(C)C)NC(=O)[C@H](CCCCN)NC(=O)[C@H](CCCCN)NC(=O)[C@H](CCSC)NC(=O)[C@@H]1CCCN1)C(=O)N[C@@H](C)C(=O)N1CCC[C@H]1C(=O)N[C@H](C(=O)N[C@@H](Cc1c[nH]c2ccccc12)C(=O)O)C(C)C [PMKKLKLALRLAAKIAPVW]
MIC (Acinetobacter baumannii): 4 µM (≈ 8.59 µg/mL) | MIC (Enterobacter cloacae): ≥ 32 µM | MIC [2]: 8 µM (≈ 17.2 µg/mL) | MIC (Escherichia coli BL21): 2 µM (≈ 4.3 µg/mL) | MIC [26]: 2 µM (≈ 4.3 µg/mL) | MIC [27]: 8 µM (≈ 17.2 µg/mL) | MIC [28]: ≥ 32 µM | MIC [29]: 8 µM (≈ 17.2 µg/mL) | MIC [30]: 16 µM (≈ 34.4 µg/mL) | MIC [31]: 16 µM (≈ 34.4 µg/mL) | MIC [11]: 8 µM (≈ 17.2 µg/mL) | MIC (Staphylococcus aureus MR): ≥ 32 µM
